Where a name gives a salt, the structure may show the parent alone. Read-outs that look alike come from different tables or passages of the source.
Experiments:
Format in all cases: cell-based, Mycobacterium tuberculosis
M. tuberculosis isolates [1] = tested on: M. tuberculosis isolates
[2] = tested on: 33 isolates of M. tuberculosis; details: for need for drug pre-treatment prior to phage incubation: Tb inoculum and phage added simultaneously, significant ΔCt in 24 hour
M. tuberculosis isolates [3] = tested on: M. tuberculosis isolates; remark: listed apart in the source
[4] = tested on: M. tuberculosis in smear positive sputum sediments; details: total 22 sediments
[5] = tested on: M. tuberculosis H37Rv (ATCC 27294); assay: D29 phage-qPCR assay development on H37Rv; details: for duration of drug treatment at which qPCR Ct became clearly disparate from control: drug treatment followed by 24 h phage incubation, FIG. 1D
[6] = strains confirmed as drug susceptible by agar proportion

Row | Compound | need for drug pre-treatment prior to phage incubation [2] | Agar proportion R (n isolates) (M. tuberculosis isolates [3]; phage assay result R) | Agar proportion S (n isolates) (M. tuberculosis isolates [3]; phage assay result R) | Agar proportion R (n isolates) (M. tuberculosis isolates [3]; phage assay result S) | Agar proportion S (n isolates) (M. tuberculosis isolates [3]; phage assay result S) | Culture R (n samples) ([4]; sediment phage assay result R) | Culture S (n samples) ([4]; sediment phage assay result R) | Culture R (n samples) ([4]; sediment phage assay result S) | Culture S (n samples) ([4]; sediment phage assay result S) | also measured
1 | NCC[C@H](O)C(=O)N[C@@H]1C[C@H](N)[C@@H](O[C@H]2O[C@H](CN)[C@@H](O)[C@H](O)[C@H]2O)[C@H](O)[C@H]1O[C@H]1O[C@H](CO)[C@@H](O)[C@H](N)[C@H]1O [Amikacin, amikacin] | no pre-treatment was required |  |  |  |  |  |  |  |  | Agar proportion susceptible (n isolates) (M. tuberculosis isolates [1]; listed as AMK): 31; D29 phage assay susceptible (n isolates) ([2]; listed as AMK): 31
2 | N[C@@H]1CON=C1O [Cycloserine, D-cycloserine] | no pre-treatment was required |  |  |  |  |  |  |  |  | 
3 | CC[C@@H](CO)NCCN[C@@H](CC)CO [Ethambutol, ethambutol hydrochloride] |  | 0 | 1 | 8 | 145 | 0 | 0 | 0 | 22 | Agar proportion susceptible (n isolates) (M. tuberculosis isolates [1]; listed as EMB, hydrochloride): 12; D29 phage assay susceptible (n isolates) ([2]; listed as EMB, hydrochloride): 12; duration of drug treatment of Tb prior to 24 hours of phage incubation yielding optimal ΔCt [2, 6]: 48 h
4 | CCc1cc(C(N)=S)ccn1 [Ethionamide, ethionamide] |  |  |  |  |  |  |  |  |  | duration of drug treatment of Tb prior to 24 hours of phage incubation yielding optimal ΔCt [2]: 48 h
5 | NNC(=O)c1ccncc1 [Isoniazid, isoniazid] |  | 22 | 9 | 5 | 118 | 1 | 3 | 0 | 18 | number of phage / real-time PCR Ct value after drug pre-treatment [5]: the number of phage did not increase/Ct value did not decrease; need for drug pre-treatment prior to phage incubation ([5]; H37Rv, FIG. 1E, 48 h superior to 24 h, 6 h and 3 h): pre-treatment was required; duration of drug treatment at which qPCR Ct became clearly disparate from control ([5]; H37Rv): 48 h
6 | CC(=O)NC[C@H]1CN(c2ccc(N3CCOCC3)c(F)c2)C(=O)O1 [Linezolid, linezolid] | no pre-treatment was required |  |  |  |  |  |  |  |  | 
7 | CO[C@H]1/C=C/O[C@@]2(C)Oc3c(C)c(O)c4c(O)c(c(/C=N/N5CCN(C)CC5)c(O)c4c3C2=O)NC(=O)/C(C)=C\C=C\[C@H](C)[C@H](O)[C@@H](C)[C@@H](O)[C@@H](C)[C@H](OC(C)=O)[C@@H]1C [Rifampin, rifampin] |  | 5 | 2 | 5 | 142 | 1 | 0 | 0 | 21 | Agar proportion susceptible (n isolates) (M. tuberculosis isolates [1]; listed as RIF): 11; number of phage / real-time PCR Ct value after drug pre-treatment [5]: the number of phage did not increase/Ct value did not decrease; ΔCtRIF (Ct control−Ct drug) [5]: −12; ΔCt ([5]; H37Rv pre-treated with drug for 72 hours, FIG. 1B): approximately −5; duration of drug treatment at which qPCR Ct became clearly disparate from control ([5]; H37Rv): 24 h; D29 phage assay susceptible (n isolates) ([2]; listed as RIF): 11
8 | [H]/N=C(/N)N[C@H]1[C@H](O)[C@@H](O)[C@H](O[C@@H]2O[C@@H](C)[C@](O)(C=O)[C@H]2O[C@@H]2O[C@@H](CO)[C@H](O)[C@@H](O)[C@@H]2NC)[C@@H](N/C(N)=N\[H])[C@@H]1O [Streptomycin, streptomycin sulfate] | no pre-treatment was required | 16 | 0 | 3 | 135 | 1 | 0 | 1 | 20 | 
9 | Nc1ccc(C(=O)O)c(O)c1 [para-aminosalicylic acid] |  |  |  |  |  |  |  |  |  | duration of drug treatment of Tb prior to 24 hours of phage incubation yielding optimal ΔCt [2, 6]: 48 h
10 | capreomycin sulfate | no pre-treatment was required |  |  |  |  |  |  |  |  | Agar proportion susceptible (n isolates) (M. tuberculosis isolates [1]; listed as CAP): 31; D29 phage assay susceptible (n isolates) ([2]; listed as CAP): 30

Reference: US20140256664A1, “COMPOSITIONS AND METHODS FOR A MYCOBACTERIUM TUBERCULOSIS DRUG SUSCEPTIBILITY TEST” (priority 2011, published 2014)
